For orientation: IC50 means the concentration that inhibits the measured activity by half. Read a low IC50 as higher potency.

The source of these data is patent US20250170126A1 (MITSUBISHI TANABE PHARMA CORPORATION, priority 2022, published 2025).

SMILES strings stand for the structures.

Chain of Human B0AT1 (Q695T7 whole entry): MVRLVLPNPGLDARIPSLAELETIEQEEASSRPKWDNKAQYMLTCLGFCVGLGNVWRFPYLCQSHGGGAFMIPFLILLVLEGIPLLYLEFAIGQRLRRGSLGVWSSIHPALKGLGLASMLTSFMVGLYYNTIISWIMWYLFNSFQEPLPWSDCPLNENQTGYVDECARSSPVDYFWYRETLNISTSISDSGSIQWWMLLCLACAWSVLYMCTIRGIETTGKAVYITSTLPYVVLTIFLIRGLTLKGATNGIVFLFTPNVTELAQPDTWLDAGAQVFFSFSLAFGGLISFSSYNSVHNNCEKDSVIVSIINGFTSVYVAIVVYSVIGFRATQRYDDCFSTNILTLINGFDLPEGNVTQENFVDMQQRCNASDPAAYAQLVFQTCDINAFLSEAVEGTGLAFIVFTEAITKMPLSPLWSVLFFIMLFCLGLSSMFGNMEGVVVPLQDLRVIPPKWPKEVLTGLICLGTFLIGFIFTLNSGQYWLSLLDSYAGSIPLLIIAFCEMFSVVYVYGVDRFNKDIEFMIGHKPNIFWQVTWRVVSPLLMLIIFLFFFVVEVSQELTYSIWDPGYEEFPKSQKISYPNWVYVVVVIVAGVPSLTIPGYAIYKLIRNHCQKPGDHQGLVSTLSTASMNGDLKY

This test concerns the target Human B0AT1 (Homo sapiens (Human), UniProt Q695T7). Description: hB0AT1 inhibitory test (phenylalanine uptake). Format: cell-based. The following applies: Human B0AT1 stable expression CHO cells; [3H]-L-phenylalanine uptake, phenylalanine 0.25 mM. On the procedure:
A test compound dissolved in dimethyl sulfoxide (DMSO) was added to a 96 well plate for solid phase radioactivity measurement containing a scintillator at the bottom of the well (final concentration of DMSO 0.5%). DMSO alone as a control and DMSO containing N-(4-bromophenyl)-3,5-dichloro-2-hydroxybenzamide (final concentration […]) for the is measurement of B0AT1 non-specific uptake were similarly added at 0.5 μL per well. Human B0AT1 stable expression CHO cells suspended in a buffer (buffer containing 96 mM sodium chloride, 2 mM potassium chloride, 1.8 mM calcium chloride, 1 mM magnesium chloride, 0.01% bovine serum albumin, and 10 mM 2-[4-(2-hydroxyethyl)-1-piperazinyl]ethanesulfonic acid) were added by 90 μL to 75000 cells/well. After standing at ordinary temperature for 30 min or longer, the cells were subjected to a phenylalanine uptake experiment. A buffer containing L-phenylalanine and [3,4,5-3H]-L-phenylalanine was added by 10 μL per well (final concentration of phenylalanine 0.25 mM), and the radioactivity of the plate bottom surface at ordinary temperature was measured with a scintillation counter over time, and the radioactivity value after 100 to 200 min was analyzed. A value obtained by subtracting the B0AT1 non-specific uptake from the control uptake was taken as 100%, and the concentration necessary for each test compound to achieve 50% inhibition (IC50 value) was determined by nonlinear regression using a logistic model.
The compound `CC(=O)N[C@H]1CCN(C(=O)CNC(=O)/C=C/c2ccc(C(F)(F)F)cc2)C1` [I-143, (E)-N-[2-[(3S)-3-acetamidopyrrolidin-1-yl]-2-oxoethyl]-3-[4-(trifluoromethyl)phenyl]prop-2-enamide] gave an IC50 of 0.55 µM.
As for `CNC(=O)[C@H]1CCN(C(=O)CNC(=O)/C=C/c2ccc(C(F)(F)F)cc2)C1` [I-144, (3S)-N-methyl-1-[2-[[(E)-3-[4-(trifluoromethyl)phenyl]prop-2-enoyl]amino]acetyl]pyrrolidine-3-carboxamide], it took 0.261 µM to reach half-maximal inhibition (IC50).
Take `CN(C)C(=O)[C@H]1CCN(C(=O)CNC(=O)/C=C/c2ccc(C(F)(F)F)cc2)C1` [I-145, (3S)-N,N-dimethyl-1-[2-[[(E)-3-[4-(trifluoromethyl)phenyl]prop-2-enoyl]amino]acetyl]pyrrolidine-3-carboxamide]: half-maximal inhibition (IC50) was put at 1.7 µM.
Regarding `CN(C)C(=O)c1cn2c(n1)CN(C(=O)CNC(=O)/C=C/c1ccc(C(F)(F)F)cc1)CC2` [I-146], the concentration for half-maximal inhibition (IC50) was 0.093 µM.
`COCCN(C)C(=O)CN(CCOC)C(=O)CNC(=O)/C=C/c1ccc(C(F)(F)F)cc1` [I-147, (E)-N-[2-[2-methoxyethyl-[2-[2-methoxyethyl(methyl)amino]-2-oxoethyl]amino]-2-oxoethyl]-3-[4-(trifluoromethyl)phenyl]prop-2-enamide] gave an IC50 of 0.298 µM.
For the compound `COCCN(CC(=O)N(C)CCO)C(=O)CNC(=O)/C=C/c1ccc(C(F)(F)F)cc1` [I-148, (E)-N-[2-[[2-[2-hydroxyethyl(methyl)amino]-2-oxoethyl]-(2-methoxyethyl)amino]-2-oxoethyl]-3-[4-(trifluoromethyl)phenyl]prop-2-enamide], the IC50 was found to be 0.259 µM.
Compound `COCCN(CC(=O)N(C)C)C(=O)CNC(=O)/C=C/c1ccc(C(F)(F)F)cc1` [I-149, (E)-N-[2-[[2-(dimethylamino)-2-oxoethyl]-(2-methoxyethyl)amino]-2-oxoethyl]-3-[4-(trifluoromethyl)phenyl]prop-2-enamide] registered a half-inhibitory concentration (IC50) of 0.17 µM.
Under `O=C(/C=C/c1ccc(C(F)(F)F)cc1)NCC(=O)N1CCn2nc(C(F)(F)F)nc2C1` [I-172] stands 0.044 µM; under `O=C(/C=C/c1ccc(C(F)(F)F)cc1)NCC(=O)N1CCn2nc(CO)cc2C1` [I-173, (E)-N-[2-[2-(hydroxymethyl)-6,7-dihydro-4H-pyrazolo[1,5-a]pyrazin-5-yl]-2-oxo-ethyl]-3-[4-(trifluoromethyl)phenyl]prop-2-enamide], 0.03 µM; under `Cc1nc2n(n1)CCN(C(=O)CNC(=O)/C=C/c1ccc(C(F)(F)F)cc1)C2` [I-174], 0.048 µM.
Under `COCCN(Cc1cnccn1)C(=O)CNC(=O)/C=C/c1ccc(C(F)(F)F)cc1` [I-175] stands 0.071 µM; under `O=C(/C=C/c1ccc(C(F)(F)F)cc1)NCC(=O)N1CC[C@H](n2cccn2)C1` [I-176], 0.185 µM; under `O=C(/C=C/c1ccc(C(F)(F)F)cc1)NCC(=O)N1CC[C@@H](n2cccn2)C1` [I-177], 0.087 µM.
The same measure for `O=C(/C=C/c1ccc(C(F)(F)F)cc1)NCC(=O)N1Cc2nccnc2C1` [I-178]: 0.06 µM.
Regarding `O=C(/C=C/c1ccc(C(F)(F)F)cc1)NCC(=O)N1CCCn2ccnc2C1` [I-179], the concentration for half-maximal inhibition (IC50) came to 0.06 µM.
For `O=C(/C=C/c1ccc(C(F)(F)F)cc1)NCC(=O)N1CCn2nccc21` [I-180], the IC50 amounted to 0.02 µM.
For the compound `C[C@H]1Cn2nccc2CN1C(=O)CNC(=O)/C=C/c1ccc(C(F)(F)F)cc1` [I-181], inhibition was half-maximal at 0.06 µM (IC50).
Under `CC1CN(C(=O)CNC(=O)/C=C/c2ccc(C(F)(F)F)cc2)Cc2ccccc21` (stereo not shown) [I-182] stands 0.168 µM; under `O=C(/C=C/c1ccc(C(F)(F)F)cc1)NCC(=O)N1Cc2ccccc2C(c2ccccc2)C1` (stereo not shown) [I-183], 0.08 µM.
As to `Cc1cc2n(n1)CCCN2C(=O)CNC(=O)/C=C/c1ccc(C(F)(F)F)cc1` [I-184], the IC50 was 0.047 µM.
For the compound `O=C(/C=C/c1ccc(C(F)(F)F)cc1)NCC(=O)N1CCCc2ncccc21` [I-185], the 50% inhibitory concentration (IC50) was found to be 0.031 µM.
The same measure for `O=C(/C=C/c1ccc(C(F)(F)F)cc1)NCC(=O)N1CCCc2cnccc21` [I-186]: 0.01 µM.
